How the values were obtained:
[1] = Solubility of reduced coenzyme Q10 crystals in fats and oils at 30° C.; format: physicochemical
Procedure: The solubility of the crystals obtained in Production Example 1 in medium-chain fatty acid triglyceride (MCT, C8:C10=6:4), soybean oil, safflower oil, or rice oil at 30° C. is shown in Table 8.

[2] = Storage stability of reduced coenzyme Q10 compositions in the air at 40° C., light-shielded, 3 days (HPLC weight ratio); format: physicochemical; details: vitamin E content high (4.11% by weight based on the system excluding coenzyme Q10)
Procedure: The purity and reduced coenzyme Q10/oxidized coenzyme Q10 ratio (weight ratio) were determined by the following HPLC analysis.
C18 (product of Waters), 250 mm (in length), 4.6 mm (in inside diameter): mobile phase; C2H5OH/CH3OH=4/3 (v/v): detection wavelength; 210 nm: flow rate; 1 ml/min: retention time of reduced coenzyme Q10; 9.1 min: retention time of oxidized coenzyme Q10; 13.3 min.
The crystals obtained in Production Example 1 were added to soybean oil, glycerol, and a mixture thereof, respectively, to a concentration of 6% by weight, and the resulting mixtures were stored in the air at 40° C. under a light-shielded condition for 3 days, and the reduced coenzyme Q10/oxidized coenzyme Q10 weight ratios in the solutions were determined.
The crystals obtained in Production Example 1 were added to various fats and oils specified in Table 2, respectively, to a concentration of 6% by weight, and the resulting mixtures were stored in the air at 40° C. under a light-shielded condition for 3 days, and the reduced coenzyme Q10/oxidized coenzyme Q10 weight ratios in the solutions were determined.
The crystals obtained in Production Example 1 were added to olive oil to a concentration of 6% by weight, and the resulting mixture was stored in the air at 40° C. under a light-shielded condition for 3 days. […]

| Molecule | Solubility ([1]; in MCT (C8:C10=6:4) at 30° C.) [wt %] | Solubility ([1]; in rice oil at 30° C.) [wt %] | Solubility ([1]; in safflower oil at 30° C.) [wt %] | Solubility ([1]; in soybean oil at 30° C.) [wt %] | effect on stabilization of reduced coenzyme Q10, in words [2] |
| --- | --- | --- | --- | --- | --- |
| COc1c(O)c(C)c(C/C=C(\C)CC/C=C(\C)CC/C=C(\C)CC/C=C(\C)CC/C=C(\C)CC/C=C(\C)CC/C=C(\C)CC/C=C(\C)CC/C=C(\C)CCC=C(C)C)c(O)c1OC [Compar. Ex. 1, reduced coenzyme Q10] | 22.4 | 10.2 | 11.1 | 10.9 | – |
| vitamin E | – | – | – | – | inhibits the stabilization of reduced coenzyme Q10 |

— patent US8562975B2, “Method for stabilizing reduced coenzyme Q10 and composition therefor” (Kaneka Corporation, priority 2002, dated 2013)
